Assay results as given in ChEMBL document CHEMBL5584360, “Undescribed Amaryllidaceae Alkaloids from Zephyranthes citrina and Their Cytotoxicity” (J Nat Prod, 2024).
Values after ≈ are worked out from the molar mass of the structure shown.

What was measured:
Cholinesterase = Cholinesterase (Homo sapiens, UniProt P06276); experiment: Inhibition of human BChE by Ellman's method
Acetylcholinesterase = Acetylcholinesterase (Homo sapiens, UniProt P22303); experiment: Inhibition of human AChE by Ellman's method
KB = experiment: Cytotoxicity against human KB cells; format: functional; settings: read-out: ED50 (the source's name)
A549 = experiment: Cytotoxicity against human A549 cells measured after 72 hrs by MTT assay; format: functional, cell-based; settings: A549, 72 h
[1] = Selectivity index, ratio of cytotoxic effect against human MRC5 cells to cytotoxic effect against human HT-29 cells; format: toxicity, cell-based; settings: MRC5 cells versus HT-29 cells, read-out: Selectivity Index
[2] = Selectivity index, ratio of cytotoxic effect against human MRC5 cells to cytotoxic effect against human SAOS-2 cells
[3] = Selectivity index, ratio of cytotoxic effect against human MRC5 cells to cytotoxic effect against human HeLa cells; format: toxicity, cell-based; settings: MRC5 cells versus HeLa cells, read-out: Selectivity Index
[4] = Selectivity index, ratio of cytotoxic effect against human MRC5 cells to cytotoxic effect against human MOLT-4 cells
[5] = Selectivity index, ratio of cytotoxic effect against human MRC5 cells to cytotoxic effect against human A2780 cells; format: toxicity, cell-based; settings: MRC5 cells versus A2780 cells, read-out: Selectivity Index
[6] = Selectivity index, ratio of cytotoxic effect against human MRC5 cells to cytotoxic effect against human Jurkat cells; format: toxicity, cell-based; settings: MRC5 cells versus Jurkat cells, read-out: Selectivity Index
[7] = Selectivity index, ratio of cytotoxic effect against human MRC5 cells to cytotoxic effect against human A549 cells; format: toxicity, cell-based; settings: MRC5 cells versus A549 cells, read-out: Selectivity Index
[8] = Selectivity index, ratio of cytotoxic effect against human MRC5 cells to cytotoxic effect against human PANC-1 cells
[9] = Selectivity index, ratio of cytotoxic effect against human MRC5 cells to cytotoxic effect against human MCF7 cells; format: toxicity, cell-based; settings: MRC5 cells versus MCF7 cells, read-out: Selectivity Index

Acetylcholinesterase, sequence (P22303 whole entry): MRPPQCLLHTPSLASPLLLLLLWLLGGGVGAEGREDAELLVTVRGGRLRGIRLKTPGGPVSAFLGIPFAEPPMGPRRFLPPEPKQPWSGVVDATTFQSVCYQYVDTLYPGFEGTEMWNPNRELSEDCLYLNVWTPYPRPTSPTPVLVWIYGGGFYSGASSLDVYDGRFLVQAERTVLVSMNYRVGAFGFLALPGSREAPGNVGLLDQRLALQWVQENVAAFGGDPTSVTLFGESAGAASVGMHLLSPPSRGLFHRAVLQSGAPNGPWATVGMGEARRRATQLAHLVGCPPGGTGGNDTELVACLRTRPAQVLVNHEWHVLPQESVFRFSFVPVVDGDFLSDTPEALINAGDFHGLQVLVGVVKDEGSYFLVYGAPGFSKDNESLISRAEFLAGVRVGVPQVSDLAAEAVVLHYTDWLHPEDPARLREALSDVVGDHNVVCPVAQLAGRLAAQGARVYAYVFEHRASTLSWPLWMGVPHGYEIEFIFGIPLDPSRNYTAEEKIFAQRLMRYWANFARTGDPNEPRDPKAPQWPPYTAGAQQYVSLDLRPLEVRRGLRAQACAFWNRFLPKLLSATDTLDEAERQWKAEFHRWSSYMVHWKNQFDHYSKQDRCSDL
Cholinesterase, sequence (P06276 whole entry): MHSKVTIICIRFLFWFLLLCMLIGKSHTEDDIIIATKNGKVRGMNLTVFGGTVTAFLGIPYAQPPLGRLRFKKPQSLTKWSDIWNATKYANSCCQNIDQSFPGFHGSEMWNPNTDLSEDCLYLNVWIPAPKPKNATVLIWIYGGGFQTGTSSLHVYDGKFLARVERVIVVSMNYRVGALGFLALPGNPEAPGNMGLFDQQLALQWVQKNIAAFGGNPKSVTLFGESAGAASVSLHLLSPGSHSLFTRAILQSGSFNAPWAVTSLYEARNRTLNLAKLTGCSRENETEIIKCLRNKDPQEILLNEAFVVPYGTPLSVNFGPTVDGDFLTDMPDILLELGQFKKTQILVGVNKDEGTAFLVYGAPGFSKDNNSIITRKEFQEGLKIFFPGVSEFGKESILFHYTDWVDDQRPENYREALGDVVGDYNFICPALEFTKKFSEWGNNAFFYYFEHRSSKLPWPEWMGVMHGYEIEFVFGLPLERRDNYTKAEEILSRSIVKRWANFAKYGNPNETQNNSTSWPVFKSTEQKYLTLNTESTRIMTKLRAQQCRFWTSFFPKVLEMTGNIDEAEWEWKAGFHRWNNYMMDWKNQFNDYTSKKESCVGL

COc1cc(-c2cccc3c2N(C)CC3)c(CN2CC[C@@]34C=C[C@H](O)C[C@@H]3Oc3c(OC)ccc(c34)C2)c(OC)c1OC
IC50 (Cholinesterase): 1.34 µM
IC50 (Acetylcholinesterase): 18.7 µM

COc1cc2c(cc1OC)[C@@]13C=CC(O)C[C@@H]1N(CC3)C2 (stereo partly specified)
EC50 (KB): 0.51 µg/mL (≈ 1.77 µM)

CO[C@H]1C=C[C@@]23c4cc5c(cc4CN(C[C@@H]2O)[C@H]3C1)OCO5
IC50 (A549): 15.9 µg/mL (≈ 52.8 µM)

O[C@H]1[C@H]2c3cc4c(cc3CN3CCC(=C[C@@H]1O)[C@H]23)OCO4 [LYCORINE]
selectivity ratio [1]: 0.62
Selectivity Index [2]: 0.62
selectivity ratio [3]: 0.62
Selectivity Index [4]: 0.62
selectivity ratio [5]: 0.62
selectivity ratio [6]: 0.62
selectivity ratio [7]: 0.62
Selectivity Index [8]: 0.62
selectivity ratio [9]: 0.62

CO[C@@H]1C=C[C@@]23c4cc5c(cc4CN(C[C@@H]2O)[C@H]3C1)OCO5 [(+)-HAEMANTHAMINE]
selectivity ratio [1]: 0.05
Selectivity Index [2]: 0.05
selectivity ratio [3]: 0.05
Selectivity Index [4]: 0.05
selectivity ratio [5]: 0.05
selectivity ratio [6]: 0.05
selectivity ratio [7]: 0.05
Selectivity Index [8]: 0.05
selectivity ratio [9]: 0.05

CO[C@@H]1C=C[C@@]23c4cc5c(cc4[C@H](O)N(C[C@@H]2O)[C@H]3C1)OCO5
selectivity ratio [1]: 0.14
Selectivity Index [2]: 0.14
selectivity ratio [3]: 0.14
Selectivity Index [4]: 0.14
selectivity ratio [5]: 0.14
selectivity ratio [6]: 0.14
selectivity ratio [7]: 0.14
Selectivity Index [8]: 0.14
selectivity ratio [9]: 0.14
